Source: patent publication US9499519B2, “Fused pyrimidine compounds and use thereof” (Medivation Technologies, Inc., priority 2012, dated 2016)
Read-outs that look alike come from different tables or passages of the source.

What was measured:
[1] = test system: panel of cancer cell lines; assay: Cell Titer-Glo cell viability, whole panels of cancer cell lines; format: cell-based; details: all cell lines tested
Experimental: Compound nos. […] This panel of cell lines includes an ER− breast carcinoma, primary breast ductal carcinoma, prostate adenocarcinoma, mammary adenocarcinoma, mammary ductal carcinoma, mammary ductal carcinoma, ovary adenocarcinoma, ER+ breast carcinoma, ER− HER2+ mammary ductal carcinoma and an ER+ mammary ductal carcinoma, respectively.
(§1) This assay quantitates the ATP present in order to determine the number of viable cells in culture. Briefly, the compounds were incubated with the cells for 72 h, followed by cell lysis. The resulting luminescent signal is proportional to the amount of ATP present and, therefore, directly proportional to the number of cells present in culture.
(§2) Compound nos. […] These cell lines are derived from human lung carcinoma, colon adenocarcinoma, colon adenocarcinoma, colon carcinoma, acute promyelocytic leukemia, colon adenocarcinoma, colon adenocarcinoma (from metastatic site lymph node), respectively.

HT-29 = assay: Cell Titer-Glo cell viability: HT-29; format: cell-based; details: Homo sapiens, Table B16, colon adenocarcinoma
Experimental: as §1, §2
(§3) Compounds 2b, 5, 6b and 10a were tested along with derivatives in viability assays as described above by Caliper LifeSciences Systems (Hanover, Md.), in A549, HCT-15, HCT-116, MCF-7, MDA-MB-231, OVCAR3, T47D, COLO205, HT-29, BT-20, HCC1187, HL-60, MDA-MB-175, SW-620, and UACC812 cells.

IGF-1R = biological target: T1, IGF-1R (Homo sapiens, UniProt P08069); assay: In vitro IGF-1R enzymatic assay (ADP-Glo kinase assay); format: biochemical; details: for inhibition at 0.03 µM: activated IGF-1R, 30 nM
T1 construct: purchased Millipore 14-802
T1 sequence (P08069 31-1367): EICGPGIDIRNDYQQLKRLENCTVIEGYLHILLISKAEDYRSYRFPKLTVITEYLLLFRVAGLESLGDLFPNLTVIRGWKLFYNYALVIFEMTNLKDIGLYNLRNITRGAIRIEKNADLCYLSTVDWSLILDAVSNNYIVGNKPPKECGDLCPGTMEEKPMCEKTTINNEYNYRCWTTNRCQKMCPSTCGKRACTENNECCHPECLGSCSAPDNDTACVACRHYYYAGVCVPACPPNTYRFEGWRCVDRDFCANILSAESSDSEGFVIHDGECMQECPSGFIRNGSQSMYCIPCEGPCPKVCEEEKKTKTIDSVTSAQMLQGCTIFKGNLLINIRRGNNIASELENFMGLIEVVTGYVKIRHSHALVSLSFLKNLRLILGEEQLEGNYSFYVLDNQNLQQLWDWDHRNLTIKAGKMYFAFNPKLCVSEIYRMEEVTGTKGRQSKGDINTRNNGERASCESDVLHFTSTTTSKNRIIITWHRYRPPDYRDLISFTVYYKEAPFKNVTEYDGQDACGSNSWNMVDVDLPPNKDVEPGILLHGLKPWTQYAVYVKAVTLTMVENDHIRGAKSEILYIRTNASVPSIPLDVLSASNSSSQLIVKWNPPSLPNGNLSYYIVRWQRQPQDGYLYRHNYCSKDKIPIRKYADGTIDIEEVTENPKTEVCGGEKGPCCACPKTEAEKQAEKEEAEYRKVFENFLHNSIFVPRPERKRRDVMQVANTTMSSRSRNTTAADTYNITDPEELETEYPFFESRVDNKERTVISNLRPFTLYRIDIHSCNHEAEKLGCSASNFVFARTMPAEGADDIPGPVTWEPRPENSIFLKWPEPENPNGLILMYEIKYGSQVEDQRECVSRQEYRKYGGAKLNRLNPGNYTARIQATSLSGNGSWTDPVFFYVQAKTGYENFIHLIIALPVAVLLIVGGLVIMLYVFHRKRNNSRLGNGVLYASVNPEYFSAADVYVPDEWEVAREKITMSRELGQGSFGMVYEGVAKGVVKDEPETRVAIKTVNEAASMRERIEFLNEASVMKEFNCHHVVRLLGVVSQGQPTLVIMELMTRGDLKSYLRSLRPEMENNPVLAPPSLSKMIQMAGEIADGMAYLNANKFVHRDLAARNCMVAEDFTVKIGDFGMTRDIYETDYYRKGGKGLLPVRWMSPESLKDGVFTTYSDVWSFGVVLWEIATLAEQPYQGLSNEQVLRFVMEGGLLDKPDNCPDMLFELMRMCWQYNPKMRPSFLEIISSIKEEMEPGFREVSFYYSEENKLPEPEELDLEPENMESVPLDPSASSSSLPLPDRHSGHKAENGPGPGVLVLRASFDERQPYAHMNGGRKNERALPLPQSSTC
Experimental: (§4) IC50 values of the compounds of the invention against IGF-1R and IR were measured in vitro using an ADP-Glo kinase assay Kit (Promega). […] Kinase reactions in both assays were conducted at 30° C. for 20 min with increasing concentrations of compounds of the invention.
Additional compounds of the invention were screened against activated IGF-1R.

[2] = test system: Akt phosphorylation induced by IGF-1R; assay: Western blot analysis of Akt phosphorylation induced by IGF-1 in HT-29 cells; format: cell-based, Human; details: for Levels of phosphorylated AKT in treated cells (pAKT/actin): HT-29 cells, IGF-1; for p-AKT relative to levels with 0.1 nM compound: Table B2 lower part; for Normalized phosphorylated AKT (relative to actin) levels relative to 0.1 nM compound treatment: Table B2 upper part
How it was run: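 HT-29 cells grown 24 h in DME/F12 with 10% FBS, serum-starved 24 h, then exposed 2 h to compound at 0.1, 1, 10 or 100; controls received DMSO or 10 ng/mL IGF-1. Lysate soluble fractions quantified by BCA before western blotting for phospho-Akt.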

IR = biological target: T2, IR (Homo sapiens, UniProt P06213); assay: In vitro IR enzymatic assay (ADP-Glo kinase assay); format: biochemical; details: for inhibition at 0.03 µM: activated IR, 30 nM
T2 construct: purchased Millipore 14-803
T2 sequence (P06213 28-1382): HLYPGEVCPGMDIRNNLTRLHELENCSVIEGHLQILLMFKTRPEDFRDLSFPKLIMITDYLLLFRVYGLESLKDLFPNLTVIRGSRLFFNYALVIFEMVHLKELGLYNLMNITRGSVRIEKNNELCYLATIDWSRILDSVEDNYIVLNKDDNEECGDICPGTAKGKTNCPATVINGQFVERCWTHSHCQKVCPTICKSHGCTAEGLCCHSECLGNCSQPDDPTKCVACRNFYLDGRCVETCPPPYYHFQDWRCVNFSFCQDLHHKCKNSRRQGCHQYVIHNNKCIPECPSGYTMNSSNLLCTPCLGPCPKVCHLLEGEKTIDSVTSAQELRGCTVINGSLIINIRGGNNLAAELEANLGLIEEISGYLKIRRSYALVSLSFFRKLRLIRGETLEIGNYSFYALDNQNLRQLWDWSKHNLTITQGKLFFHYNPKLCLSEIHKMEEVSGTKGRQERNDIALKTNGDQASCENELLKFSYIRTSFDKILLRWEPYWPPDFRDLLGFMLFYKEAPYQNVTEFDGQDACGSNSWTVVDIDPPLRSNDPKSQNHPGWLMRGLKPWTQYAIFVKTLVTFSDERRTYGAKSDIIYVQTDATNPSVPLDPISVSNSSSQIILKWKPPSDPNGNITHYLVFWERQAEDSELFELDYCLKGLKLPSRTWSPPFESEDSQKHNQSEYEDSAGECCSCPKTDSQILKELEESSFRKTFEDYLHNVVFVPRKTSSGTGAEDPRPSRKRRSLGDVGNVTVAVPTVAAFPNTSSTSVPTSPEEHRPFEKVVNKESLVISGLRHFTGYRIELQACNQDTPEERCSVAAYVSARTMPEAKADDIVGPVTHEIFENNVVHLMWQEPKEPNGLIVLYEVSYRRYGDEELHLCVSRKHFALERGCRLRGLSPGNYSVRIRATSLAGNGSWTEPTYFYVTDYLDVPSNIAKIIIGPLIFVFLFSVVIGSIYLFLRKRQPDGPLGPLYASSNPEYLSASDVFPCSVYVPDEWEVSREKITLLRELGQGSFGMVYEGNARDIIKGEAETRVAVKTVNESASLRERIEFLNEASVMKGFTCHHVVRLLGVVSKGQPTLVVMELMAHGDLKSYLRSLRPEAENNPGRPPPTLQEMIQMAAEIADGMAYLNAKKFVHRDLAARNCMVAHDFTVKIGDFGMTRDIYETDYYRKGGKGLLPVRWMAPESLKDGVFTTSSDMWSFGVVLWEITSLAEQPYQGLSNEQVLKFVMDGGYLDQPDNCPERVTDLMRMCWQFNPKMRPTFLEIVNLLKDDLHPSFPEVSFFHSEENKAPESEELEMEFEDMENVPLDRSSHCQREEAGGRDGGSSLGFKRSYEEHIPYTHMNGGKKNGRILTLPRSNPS
Experimental: as §4
Additional compounds of the invention were screened against activated IR.

HCT-116 = assay: Cell Titer-Glo cell viability: HCT-116; format: cell-based; details: Homo sapiens, Table B16, colon carcinoma, read-out: IC50 cell viability HCT116
Experimental: as §1, §2, §3

AMPK = assay: RapidKinase192 panel: AMPK; format: biochemical
[3] = N1, read-out: % Inh @ 30 nM (N1)
[4] = N2, read-out: % Inh @ 30 nM (N2)
[5] = average, read-out: % Inh @ 30 nM Avg

O=C(Nc1ccc(F)nc1)C1CCCN1c1nc2c(c(Nc3cc(C4CC4)[nH]n3)n1)CCC2 (single isomer, unassigned) [Compound 2b, 1-(4-(5-cyclopropyl-1H-pyrazol-3-ylamino)-6,7-dihydro-5H-cyclopenta[d]pyrimidin-2-yl)-N-(6-fluoropyridin-3-yl)pyrrolidine-2-carboxamide]
potency in cell viability assays compared with OSI-906 and BMS-754807 [1]: more potent effects | IC50 (HT-29): < 10 nM | Hill Slope N1 (IGF-1R; IGF-1R, run N1): 1.195 | Hill Slope N2 (IGF-1R; IGF-1R, run N2): 1.384 | inhibition at 0.03 µM (IGF-1R; [3]): 90% | inhibition at 0.03 µM (IGF-1R; [4]): 88% | inhibition at 0.03 µM (IGF-1R; [5]): 89% | Levels of phosphorylated AKT in treated cells (pAKT/actin) ([2]; 0.1 nM compound): 1.57 | p-AKT relative to levels with 0.1 nM compound ([2]; 0.1 nM): 1.0 | Normalized phosphorylated AKT (relative to actin) levels relative to 0.1 nM compound treatment ([2]; 0.1 nM): 1.0 | Levels of phosphorylated AKT in treated cells (pAKT/actin) ([2]; 1 nM compound): 0.80 | p-AKT relative to levels with 0.1 nM compound ([2]; 1 nM): 0.5 | Normalized phosphorylated AKT (relative to actin) levels relative to 0.1 nM compound treatment ([2]; 1 nM): 0.5 | Levels of phosphorylated AKT in treated cells (pAKT/actin) ([2]; 10 nM compound): 0.22 | p-AKT relative to levels with 0.1 nM compound ([2]; 10 nM): 0.1 | Normalized phosphorylated AKT (relative to actin) levels relative to 0.1 nM compound treatment ([2]; 10 nM): 0.1 | Levels of phosphorylated AKT in treated cells (pAKT/actin) ([2]; 100 nM compound): 0.03 | p-AKT relative to levels with 0.1 nM compound ([2]; 100 nM): 0.0 | Normalized phosphorylated AKT (relative to actin) levels relative to 0.1 nM compound treatment ([2]; 100 nM): 0.0 | Hill Slope N1 (IR; IR, run N1): 1.34 | Hill Slope N2 (IR; IR, run N2): 1.13 | inhibition at 0.03 µM (IR; [3]): 92% | inhibition at 0.03 µM (IR; [4]): 88% | inhibition at 0.03 µM (IR; [5]): 90% | IC50 (HCT-116): 1000 nM | Average % Inh @ 10 nM (AMPK): + (+=Low) | Average % Inh @ 100 nM (AMPK): ++ (++=Med) | Average % Inh @ 1 μM (AMPK): +++ (+++=High)
